Patent US9834754B2, “Populations of hematopoietic progenitors and methods of enriching stem cells therefor” (University Health Network, priority 2011, dated 2017)

How the values were obtained:
[1] = system: CD34+CD43− cells isolated from Activin A induced or SB-treated EBs; test: T lymphoid precursor frequency analysis (limiting dilution assay on OP9-DL4 cells); assay type: cell-based, human; conditions: limiting dilution analyses, day 9 CD34+ population
Protocol: (§1) The hESC line H1 (Thomson et al., 1998) and the reprogrammed human iPS cell line (MSC-iPS1; (Park et al., 2008)) were used in this study. They were maintained on irradiated mouse embryonic fibroblasts in hESC media as described previously (Kennedy et al., 2007). Prior to differentiation, the cells were feeder-depleted by culturing on matrigel (BD Biosciences, Bedford, Mass.) in hESC media for 24 to 48 hours. To generate EBs, hPSCs were treated with collagenase B (1 mg/ml; Roche, Indianapolis, Ind.) for 20 minutes followed by a short trypsin-EDTA (0.05%) step. Cells were gently scraped with a cell scraper to form small aggregates (10-20 cells). Aggregates were resuspended in StemPro-34 (Invitrogen), supplemented with penicillin/streptomycin (10 ng/mL), L-glutamine (2 mM), ascorbic acid (1 mM), monothioglycerol (MTG, 4×10^−4M; Sigma), and transferrin (150 μg/mL). […]
Limiting dilution assays (LDA) of CD34+CD43− cells isolated from either Activin A induced or SB-treated EBs were performed by serial dilutions. […] The presence of CD45+CD7+CD43+CD5+ cells was scored. Progenitor frequencies were determined by the method of maximum likelihood applied to the Poisson model (Groth, 1982).

iPSC line MSC-iPS1 = test: Hematopoietic differentiation of hiPSCs (flow cytometry and colony assay); assay type: cell-based, human; conditions: SB added between days 2 to 4; hiPSC; FIG. 7
Protocol: as §1, with “cells).” for “cells). Aggregates were resuspended in StemPro-34 (Invitrogen), supplemented with penicillin/streptomycin (10 ng/mL), L-glutamine (2 mM), ascorbic acid (1 mM), monothioglycerol (MTG, 4×10^−4M; Sigma), and transferrin (150 μg/mL).”
The following antibodies were used for these studies: CD3-APC (clone UCHT1), CD4-APC-EFluor750 (clone RPA-T4), CD5-PE-Cy7 (clone L17F12), CD7-FITC (clone M-T701), CD8-eFluor-650 NC (clone RPA-T8), CD31-FITC (clone WM59), CD33-FITC (clone HIM 3-4), CD34-APC (clone 8G12), CD34-PE-CY7 (clone 4H11), CD41-APC (clone HIP8), CD42b-PE (clone HIP1), CD43-PE (clone 1G10), CD45-APC-eFluor750 (clone 2D1) or CD45-PacificBlue (clone H130), CD56-PE-Cy7 (clone B159), CD90-APC (clone 5E10), CD117-APC (clone 104D2), CD144-PE (clone 123413), KDR-PE (clone 89106), TCRγδ-FITC (clone 11F2), TCRαβ-PE (clone T10B9.1A-31). Stained cells were analyzed using an LSRII (BD Biosciences) flow cytometer at the indicated time points. […]

[2] = system: other pathways or kinases including BMP4, ERK, JNK or p38 MAPK; conditions: Inman, 2002; cited from earlier work
day 9 CD34+ progenitors = test: OP9-DL4 co-culture for T-lineage differentiation; assay type: cell-based, human; conditions: cultured on OP9-DL4 cells; FIG. 5A
Protocol: OP9 cells retrovirally-transduced to express Delta-like 4 (OP9-DL4) were generated and maintained in α-MEM medium supplemented with penicillin/streptomycin and 20% FBS (OP9 media) as previously described (La Motte-Mohs et al., 2005; Schmitt et al., 2004). 5-10×10^4 sorted human EB-derived subsets were added to individual wells of a 6-well plate containing OP9-DL4 cells, and cultured in OP9-media supplemented with rhFlt-3L (5 ng/mL) and rhIL-7 (5 ng/mL), (Peprotech, Rocky Hill, N.J.). rhSCF (100 ng/mL) was added for the first 8 days only, Every five days co-cultures were transferred onto fresh OP9-DL4 cells by vigorous pipetting and passaging through a 40 μm cell strainer to remove stromal cells.

[3] = system: CD34+ population isolated from EBs; test: RT-qPCR expression analysis of CD34+ fractions from day 9 EBs; assay type: cell-based, human; conditions: FIG. 4E
Protocol: Total RNA was prepared with the RNAqueous RNA Isolation Kit (Ambion) and treated with RNase-free DNase (Qiagen). 100 ng to 1 ug RNA was transcribed into cDNA using random hexamers and Oligo (dT) with Superscript III Reverse Transcriptase (Invitrogen). Real-time quantitative PCR was performed on a MasterCycler EP RealPlex (Eppendorf). All experiments were carried out in triplicate using SYBR Green JumpStart Taq ReadyMix (Sigma). The oligonucleotide sequences are available upon request. Gene expression was evaluated as DeltaCt relative to control (ACTB).

[4] = system: phospho-SMAD2 (Activin/nodal signaling); test: Western blot / densitometry of phospho-Smad2 in day 2 EBs; assay type: cell-based, human; conditions: 30 minutes treatment, FIG. 4B
Source text: Thirty minutes after the addition of DMSO, Activin A, and/or SB at day 2 of differentiation, wells were harvested and lysed on ice using RIPA buffer. Proteins were separated by SDS-PAGE, transferred onto nitrocellulose membranes and probed overnight with Smad2 (Cell Signaling, 1:1000) and phospho-Smad2 antibodies (Millipore, 1:1000, […]/467). Membranes were scanned using the LI-COR Biosciences Odyssey imaging system.

CD34+CD43− populations = test: OP9-DL1 co-culture for erythroid/myeloid differentiation followed by colony assay; assay type: cell-based, human; conditions: 7 days of co-culture on OP9-DL1; FIG. 6C
Protocol: Sorted cells were cultured at a concentration of 2×10^4 cells per well on irradiated OP9-DL1 monolayers in OP9 media with VEGF (5 ng/mL), TPO (30 ng/mL), SCF (50 ng/mL), Flt3 (10 ng/mL), IL-11 (5 ng/mL), and BMP-4 (10 ng/mL) in 24-well plates for 7 days. Cells were harvested as above. Analysis of hematopoietic colony potential was performed by plating either 5×103-2.5×10^4 sorted cells or 2.5×104-5.0×104 unfractionated EB populations in 1% methylcellulose containing specific cytokines as described in detail previously (Kennedy et al., 2007). Colonies consisting of erythroid, erythroid/myeloid and myeloid (either macrophage or mast cell) cells were quantified after 10-14 days.

[5] = system: H1 hESCs differentiated as embryoid bodies (EBs); test: Hematopoietic colony assay of hESC-derived EBs; assay type: cell-based, human; conditions: for erythroid progenitors in day 13 EBs: treatment between days 2 and 4 of differentiation, Activin A at increasing concentrations
Protocol: The hESC line H1 (Thomson et al., 1998) and the reprogrammed human iPS cell line (MSC-iPS1; (Park et al., 2008)) were used in this study. They were maintained on irradiated mouse embryonic fibroblasts in hESC media as described previously (Kennedy et al., 2007). Prior to differentiation, the cells were feeder-depleted by culturing on matrigel (BD Biosciences, Bedford, Mass.) in hESC media for 24 to 48 hours. To generate EBs, hPSCs were treated with collagenase B (1 mg/ml; Roche, Indianapolis, Ind.) for 20 minutes followed by a short trypsin-EDTA (0.05%) step. Cells were gently scraped with a cell scraper to form small aggregates (10-20 cells). Aggregates were resuspended in StemPro-34 (Invitrogen), supplemented with penicillin/streptomycin (10 ng/mL), L-glutamine (2 mM), ascorbic acid (1 mM), monothioglycerol (MTG, 4×10^−4M; Sigma), and transferrin (150 μg/mL). BMP-4 (10 ng/mL), bFGF (5 ng/mL), Activin A, 6 μM SB-431542, VEGF (15 ng/mL), Dkk (150 ng/mL), IL-6 (10 ng/mL), IGF-1 (25 ng/mL), IL-11 (5 ng/mL), SCF (50 ng/mL), EPO (2 U/mL final), TPO (30 ng/mL), IL-3 (30 ng/mL) and Flt-3L (10 ng/mL) were added as indicated. Cultures were maintained in a 5% CO2/5% O2/90% N2 environment for the first 8 days and then transferred to a 5% CO2/air environment. All recombinant factors are human and were purchased from R&D Systems (Minneapolis, Minn.).
Analysis of hematopoietic colony potential was performed by plating either 5×103-2.5×10^4 sorted cells or 2.5×104-5.0×104 unfractionated EB populations in 1% methylcellulose containing specific cytokines as described in detail previously (Kennedy et al., 2007). Colonies consisting of erythroid, erythroid/myeloid and myeloid (either macrophage or mast cell) cells were quantified after 10-14 days.

[6] = system: H1 hESCs differentiated as embryoid bodies (EBs); test: Flow cytometric analysis of surface markers on hESC-derived EBs; assay type: cell-based, human
Protocol: The hESC line H1 (Thomson et al., 1998) and the reprogrammed human iPS cell line (MSC-iPS1; (Park et al., 2008)) were used in this study. They were maintained on irradiated mouse embryonic fibroblasts in hESC media as described previously (Kennedy et al., 2007). Prior to differentiation, the cells were feeder-depleted by culturing on matrigel (BD Biosciences, Bedford, Mass.) in hESC media for 24 to 48 hours. To generate EBs, hPSCs were treated with collagenase B (1 mg/ml; Roche, Indianapolis, Ind.) for 20 minutes followed by a short trypsin-EDTA (0.05%) step. Cells were gently scraped with a cell scraper to form small aggregates (10-20 cells). Aggregates were resuspended in StemPro-34 (Invitrogen), supplemented with penicillin/streptomycin (10 ng/mL), L-glutamine (2 mM), ascorbic acid (1 mM), monothioglycerol (MTG, 4×10^-4M; Sigma), and transferrin (150 μg/mL). BMP-4 (10 ng/mL), bFGF (5 ng/mL), Activin A, 6 μM SB-431542, VEGF (15 ng/mL), Dkk (150 ng/mL), IL-6 (10 ng/mL), IGF-1 (25 ng/mL), IL-11 (5 ng/mL), SCF (50 ng/mL), EPO (2 U/mL final), TPO (30 ng/mL), IL-3 (30 ng/mL) and Flt-3L (10 ng/mL) were added as indicated. Cultures were maintained in a 5% CO2/5% O2/90% N2 environment for the first 8 days and then transferred to a 5% CO2/air environment. All recombinant factors are human and were purchased from R&D Systems (Minneapolis, Minn.). The following antibodies were used for these studies: CD3-APC (clone UCHT1), CD4-APC-EFluor750 (clone RPA-T4), CD5-PE-Cy7 (clone L17F12), CD7-FITC (clone M-[…]), CD8-eFluor-650 NC (clone RPA-T8), CD31-FITC (clone WM59), CD33-FITC (clone HIM 3-4), CD34-APC (clone 8G12), CD34-PE-CY7 (clone 4H11), CD41-APC (clone HIP8), […]10), CD45-APC-eFluor750 (clone 2D1) or CD45-PacificBlue (clone H130), CD56-PE-Cy7 (clone B159), CD90-APC (clone 5E10), CD117-APC (clone 104D2), CD144-PE (clone 123413), KDR-PE (clone 89106), TCRγδ-FITC (clone 11F2), TCRαβ-PE (clone T10B9.1A-31). Stained cells were analyzed using an LSRII (BD Biosciences) flow cytometer at the indicated time points. Data analysis was performed using FlowJo software. For T lymphoid studies, analyses were carried out by gating on live cells and lack of 6-Diamidino-2-phenylindole (DAPI) uptake, followed by gating on cells expressing CD45. All antibodies were purchased from BD Biosciences (San Diego, Calif.) with the following exceptions: CD8 eFluor-650 NC and CD34-PE-CY7 were purchased from eBioscience (San Diego, Calif.) and KDR was purchased from R&D systems. Cells were sorted with […] (BD) cell sorter at the Sick Kids/UHN Flow Cytometry Facility.

[7] = inhibition between days 2 and 4, FIG. 4C

## NC(=O)c1ccc(-c2nc(-c3ccc4c(c3)OCO4)c(-c3ccccn3)[nH]2)cc1 [SB-431542]
[1]
  frequency of T cell progenitors in SB-treated CD34+ population relative to Activin A-induced CD34+CD43− population: more than 3 fold
iPSC line MSC-iPS1
  development of CD41+/CD43+ populations and erythroid and erythroid-myeloid progenitors: inhibited
[2]
  inhibition of other pathways or kinases including BMP4, ERK, JNK or p38 MAPK: no observed inhibition
Day 9 CD34+ progenitors
  T cell generation from SB-treated day 9 CD34+ progenitors: generated T cells
[3]
  expression of LMO2, GATA1, GATA2 and HOXB4 versus Activin A-induced population: comparable
  expression of SOX17 and AML1C in CD34+ population versus Activin A-induced CD34+CD43− population: higher levels
[4]
  levels of phospho-SMAD2 (densitometry): significantly reduced
CD34+CD43− populations
  numbers of erythroid and erythroid-myeloid progenitors versus Activin A-induced progenitors: significantly higher numbers
[5]; any of the timepoints assayed, FIG. 4D
  erythroid progenitors in SB-treated EBs: not detected
[5]; FIG. 1C
  erythroid progenitors in day 13 EBs: eliminated almost all erythroid progenitors
[6]; SB added at day 3 of differentiation, FIG. 9
  CD43+ population at day 9 when SB addition delayed until day 3: development of some CD43^+ cells
[6]; SB added between days 2 and 4 of differentiation
  development of KDR+ and CD34+ populations: developed normally
[6]; SB added within the first 24 hours of differentiation, FIG. 4A
  induction of KDR+CD34+ hematopoietic mesoderm population at day 5 of differentiation: completely blocked
[6]; [7]
  development of the CD43+ population in day 9 EBs: completely blocked
  effect on CD34+ cells in day 9 EBs: did not appear to impact
[6]; inhibitor added between days 1 and 2 of differentiation
  development of KDR+ cells (mesoderm formation): prevented the development of any KDR^+ cells

B1: Activin A: recombinant human factor purchased from R&D Systems, used for hematopoietic induction (protein, UniProt P08476 311-426, looked up)
Inhibin beta A chain: GLECDGKVNICCKKQFFVSFKDIGWNDWIIAPSGYHANYCEGECPSHIAGTSGSSLSFHSTVINHYRMRGHSPFANLKSCCVPTKLRPMSMLYYDDGQNIIKKDIQNMIVEECGCS
[5]; 0.3 ng/mL Activin A
  induction of myeloid and erythroid progenitors: effectively induced both myeloid and erythroid progenitors
[5]; increasing concentrations of Activin A, days 2-4, FIG. 1C
  myeloid progenitors in day 13 EBs: reduction in myeloid progenitors
[5]; FIG. 1C
  erythroid progenitors in day 13 EBs: increase in erythroid progenitors
